Assay results reported in paper PMC7785020, “A unique hormonal recognition feature of the human glucagon-like peptide-2 receptor” (Cell Research, 2020).
Residue numbers refer to the chain shown, from its start.

What was measured:
[1] = target: T1, GLP-2R Y186^1.47A (Homo sapiens, UniProt O95838, Y186A); test: cAMP accumulation, Y186^1.47A; type: cell-based; design: WT (1–553); expressed in transfected cells; HEK 293T (cAMP); conditions: Table S3, Y186A; HEK 293T, 30 min, RT; mean ± SEM, n ≥ 3 in duplicate; read-out: cAMP Emax (% WT)
T1 sequence (O95838 1-553 Y186A): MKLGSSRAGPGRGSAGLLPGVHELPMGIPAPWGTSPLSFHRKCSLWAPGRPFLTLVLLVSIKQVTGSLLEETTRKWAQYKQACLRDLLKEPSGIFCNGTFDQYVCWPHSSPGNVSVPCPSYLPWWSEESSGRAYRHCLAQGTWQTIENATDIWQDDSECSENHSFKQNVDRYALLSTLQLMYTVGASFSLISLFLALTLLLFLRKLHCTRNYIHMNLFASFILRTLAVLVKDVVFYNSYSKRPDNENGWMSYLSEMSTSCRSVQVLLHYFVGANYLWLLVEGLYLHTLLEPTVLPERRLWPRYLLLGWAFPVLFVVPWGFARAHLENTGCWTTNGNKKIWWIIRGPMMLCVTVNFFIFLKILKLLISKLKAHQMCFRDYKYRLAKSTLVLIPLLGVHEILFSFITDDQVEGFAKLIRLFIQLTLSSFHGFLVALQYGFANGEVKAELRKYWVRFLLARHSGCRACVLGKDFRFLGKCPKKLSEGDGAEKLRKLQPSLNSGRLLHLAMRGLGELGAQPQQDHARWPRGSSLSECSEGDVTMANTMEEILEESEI
Description: (§1) HEK 293T cells were cultured in Dulbecco’s Modified Eagle’s Medium (DMEM) (Gibco, Waltham, USA) supplemented with 10% (v/v) fetal bovine serum (FBS) (Gibco) and 1% (v/v) sodium pyruvate (Gibco) at 37 °C, 5% CO2 in a humidified incubator. They were seeded onto 6-well cell culture plates and transiently transfected with different GLP-2R constructs using Lipofectamine 2000 transfection reagent (Invitrogen, Carlsbad, CA, USA). After 24 h, the transfected cells were seeded onto 384-well microtiter plates (3000 cells per well) in HBSS supplemented with 5 mM HEPES, 0.1% (w/v) bovine serum albumin (BSA) and 0.5 mM 3-isobutyl-1- methylxanthine, and stimulated with increasing concentrations of GLP-2 for 30 min at RT. Eu and Ulight were diluted by cAMP detection buffer and added to the plates separately to terminate the reaction. Plates were incubated at RT for 60 min before measuring the fluorescence intensity at 620 nm and […] by an EnVision multilabel plate reader (PerkinElmer, Boston, USA).

[2] = target: T2, GLP-2R N334^ECL2A (Homo sapiens, UniProt O95838, N334A); test: cAMP accumulation, N334^ECL2A; type: cell-based; design: GLP-2R (1-553) (WT); expressed in transfected cells; host or cells: HEK 293T; conditions: Table S3, N334A; HEK 293T, 30 min, RT; mean ± SEM, n ≥ 3 in duplicate; read-out: cAMP Emax (% WT)
T2 sequence (O95838 1-553 N334A): T1 sequence (O95838 1-553 Y186A) with A186Y, N334A
Description: as §1

[3] = target: T3, GLP-2R mutant ECL1 (poly-alanine) (Homo sapiens, UniProt O95838, D244A/DELINS236-257AAAAAAAAAAAAAAAAAAAAAA/E246A/E255A/G248A/K241A/L253A/M250A/M256A/N237A/N245A/N247A/P243A/R242A/S238A/S240A/S251A/S254A/S257A/W249A/Y236A/Y239A/Y252A); test: radioligand competition binding, ECL1 (poly-alanine); conditions: COS-7, ECL1 (residues 236–257) substituted by poly-alanine; [^125I]GLP-2(1–33, M10Y) 10–15 pM, 4 h, 4 °C; mean ± SEM, n ≥ 3 in duplicate
T3 construct: WT (1–553); expressed in transfected cells; host or cells: COS-7
Description: A stepwise oxidation reaction was performed by addition of 6 aliquots of 5 µL ChloramineT (30 µL/mL) with a 1-min interval during constant stirring. The reaction was terminated by the addition of 400 µL phase A (0.1% trifluoracetic acid) before being fractionated into 1 mL volume by reverse-phase high-performance liquid chromatography (RP-HPLC, Waters 600 SimiPrep system) on a C18 column. The iodinated protein was […] by increasing concentrations of phase B (Acetonitrile + 0.1% TFA) and tested for competitive binding ability.
One day before transfection, the COS-7 cells were seeded in 75 cm^2 culture flasks (3 million cells/flask) in DMEM, containing 3.9 g/L NaHCO3 and supplemented with 10% FBS, 1% L-glutamine, 180 units/mL penicillin and 45 µg/mL streptomycin. […] Following 24-h incubation, the cells were transferred to Costa® microtiter plates (150,000 cells/well, PerkinElmer) to achieve a 5%–10% specific binding. Forty-eight hours after transfection, the cells were washed twice in binding buffer (50 mM HEPES, pH 7.4, supplemented with 1 mM CaCl2, 5 mM MgCl2 and 0.5% (w/v) BSA) and incubated for 15 min at 4 °C. […] The cells were then washed twice in binding buffer (4 °C), lysed and counted for radioactivity using a Wallac Gamma Counter (PerkinElmer).

[4] = target: GLP-2R Y252^ECL1A (human) (UniProt O95838); test: radioligand binding; competition on transiently transfected COS-7 cells: unlabeled GLP-2(1–33) 0.1 nM to 1 μM against 10–15 pM [125I]GLP-2(1–33, M10Y); 4 h, 4 °C; 50 mM HEPES pH 7.4, 1 mM CaCl2, 5 mM MgCl2, 0.5% BSA; three-parameter logistic fit
Sequence of GLP-2R Y252^ECL1A (human) (O95838 whole entry Y252A): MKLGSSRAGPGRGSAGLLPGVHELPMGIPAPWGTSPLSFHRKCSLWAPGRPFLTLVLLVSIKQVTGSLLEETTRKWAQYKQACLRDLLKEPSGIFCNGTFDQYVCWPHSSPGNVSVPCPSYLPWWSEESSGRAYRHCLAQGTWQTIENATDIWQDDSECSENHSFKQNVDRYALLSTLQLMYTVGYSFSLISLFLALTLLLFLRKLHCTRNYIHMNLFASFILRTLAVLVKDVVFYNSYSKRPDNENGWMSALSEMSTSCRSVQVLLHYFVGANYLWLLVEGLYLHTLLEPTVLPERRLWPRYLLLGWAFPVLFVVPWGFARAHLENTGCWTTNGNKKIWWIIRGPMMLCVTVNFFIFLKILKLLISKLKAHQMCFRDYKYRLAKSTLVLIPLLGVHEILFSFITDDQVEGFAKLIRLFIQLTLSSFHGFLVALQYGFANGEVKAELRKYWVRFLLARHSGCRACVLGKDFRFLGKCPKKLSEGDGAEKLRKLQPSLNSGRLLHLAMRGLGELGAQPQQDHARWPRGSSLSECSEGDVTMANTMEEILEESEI

% Binding of WT [4] [%] | Compound | Emax [1] [%] | Emax [2] [%] | % Binding of WT [3] [%]
– | CC[C@H](C)[C@H](NC(=O)[C@H](Cc1ccccc1)NC(=O)[C@H](CC(=O)O)NC(=O)[C@H](CCCNC(=N)N)NC(=O)[C@H](C)NC(=O)[C@H](C)NC(=O)[C@H](CC(C)C)NC(=O)[C@H](CC(N)=O)NC(=O)[C@H](CC(=O)O)NC(=O)[C@H](CC(C)C)NC(=O)[C@@H](NC(=O)[C@@H](NC(=O)[C@H](CC(N)=O)NC(=O)[C@H](CCSC)NC(=O)[C@H](CCC(=O)O)NC(=O)[C@H](CC(=O)O)NC(=O)[C@H](CO)NC(=O)[C@H](Cc1ccccc1)NC(=O)[C@H](CO)NC(=O)CNC(=O)[C@H](CC(=O)O)NC(=O)[C@H](C)NC(=O)[C@@H](N)Cc1c[nH]cn1)[C@@H](C)O)[C@@H](C)CC)C(=O)N[C@@H](CC(N)=O)C(=O)N[C@@H](Cc1c[nH]c2ccccc12)C(=O)N[C@@H](CC(C)C)C(=O)N[C@H](C(=O)N[C@@H](CCC(N)=O)C(=O)N[C@H](C(=O)N[C@@H](CCCCN)C(=O)N[C@H](C(=O)N[C@H](C(=O)N[C@@H](CC(=O)O)C(=O)O)[C@@H](C)O)[C@@H](C)CC)[C@@H](C)O)[C@@H](C)CC [Human GLP-2 (1–33)] | 100 ± 2.8 | 103 ± 2.9 | 3.0 ± 1.1
8.3 | [^125I]GLP-2(1–33, M10Y) (peptide) | – | – | –
